“And” between values parts separate entries of the source, which are not always exact repeats. Equal entries are not always repeated. “Also recorded” adds a separate entry of the source. Where two headings read alike, the source gives them in different places.
Test system: advanced NSCLC patients with ALK or ROS1 rearrangement
Assay: Phase 1 trial: safety (adverse events, DLT, MTD; NCI CTCAE 4.03)
Assay type: in vivo
Protocol: This FIH, single arm, multicenter, phase 1 study was conducted in advanced NSCLC patients with ALK or ROS1 rearrangement, composed of the dose-escalation and dose-expansion phases. The dose-escalation and dose-expansion phases were conducted at 4 and 38 centers in mainland China, respectively (Supplementary Table S1), and were done in compliance with the Declaration of Helsinki and International Council for Harmonisation guidelines for Good Clinical Practice. The study protocol and amendments were approved by the independent ethics committee at every participating site. Written informed consent was provided by all patients before being screened for enrolment.
ALK and ROS1 rearrangements were established by immunohistochemistry, reverse transcription-polymerase chain reaction (PCR), amplification refractory mutation system-PCR, fluorescence in situ hybridization, or next-generation sequencing. Patients must have at least one measurable lesion as defined by Response Evaluation Criteria in Solid Tumors (RECIST) version 1.1. Other key eligibility criteria included an age of 18–70 years, an Eastern Cooperative Oncology Group performance status of 0 or 1, a life expectancy of at least 12 weeks, and adequate organ function, including adequate function of bone marrow (absolute neutrophil count ≥1.5 × 10^9/L, platelets ≥100 × 10^9/L, hemoglobin ≥90 g/L) and liver function (total bilirubin ≤1.5× upper limit of normal [ULN], ALT and AST ≤2.5× ULN [≤5.0× ULN for liver metastasis patients]).
In the dose-escalation phase, a standard 3 + 3 design was used to determine the MTD.[29]
Three patients were assigned to each dose level.
Patients continued treatment until documented disease progression, unacceptable toxicity, withdrawal of consent, the start of a new anticancer treatment, death, loss of follow-up, or end of the study (whichever occurred first). Patients were permitted to continue treatment after progression if they were still experiencing clinical benefit, at the discretion of the investigator.
For grade ≥3 AEs (also including grade ≥2 cardiac dysfunction and renal dysfunction, etc.), dose interruption could occur.
Patients performed imaging evaluation at baseline, with computed tomography or magnetic resonance imaging of the chest, abdomen, pelvis, and brain. […] In the dose-expansion phase, tumor response was assessed every 6 weeks until 48 weeks and every 12 weeks thereafter until documented disease progression. If responses (CR or PR) were observed, repeat assessments were required to confirm the responses 4 weeks after the initial evaluation. Tumor responses were assessed by local investigators according to RECIST 1.1.
Safety parameters included TEAEs, SAEs, and TRAEs.

[1] = TEAE, Grade 1–2, total (n = 152)
[2] = TEAE, ≥Grade 3, total (n = 152)
[3] = TEAE, ≥Grade 3, dose: 30, 60, 90, 120, 180, 240, 300 mg
[4] = TRAE, ≥grade 3, dose: 30, 60, 90, 120, 180, 240, 300 mg

Compound: COc1cc(N2CCC3(CCN(C)CC3)CC2)ccc1Nc1ncc(Cl)c(Nc2ccccc2P(C)(C)=O)n1 [WX-0593]
- Dizziness, patients n (%): 0
- ALT elevated, patients n (%) [1]: 39 (26%)
- AST elevated, patients n (%) [1]: 41 (27%)
- CPK elevated, patients n (%) [1]: 31 (20%)
- Dizziness, patients n (%) [1]: 16 (11%)
- Headache, patients n (%) [1]: 14 (9%)
- Hypertension, patients n (%) [1]: 24 (16%)
- Hypertriglyceridemia, patients n (%) [1]: 32 (21%)
- Upper respiratory infection, patients n (%) [1]: 16 (11%)
- diarrhea, patients n (%) [1]: 21 (14%)
- hypercholesterolemia, patients n (%) [1]: 42 (28%)
- hyperlipidemia, patients n (%) [1]: 21 (14%)
- nausea, patients n (%) [1]: 48 (32%)
- rash, patients n (%) [1]: 19 (13%)
- γ-GGT elevated, patients n (%) [1]: 12 (8%)
- Headache, patients n (%) (TEAE, all grade, total (n = 152)): 14 (9%)
- ALT elevated, patients n (%) [2]: 6 (4%)
- AST elevated, patients n (%) [2]: 6 (4%)
- CPK elevated, patients n (%) [2]: 0
- Headache, patients n (%) [2]: 0
- Hypertension, patients n (%) [2]: 9 (6%)
- Hypertriglyceridemia, patients n (%) [2]: 5 (3%)
- Upper respiratory infection, patients n (%) [2]: 1 (1%)
- diarrhea, patients n (%) [2]: 1 (1%)
- hypercholesterolemia, patients n (%) [2]: 5 (3%)
- hyperlipidemia, patients n (%) [2]: 1 (1%)
- nausea, patients n (%) [2]: 0
- rash, patients n (%) [2]: 1 (1%)
- vomiting, patients n (%) [2]: 0
- γ-GGT elevated, patients n (%) [2]: 5 (3%)
- CPK elevated, patients n (%) [3]: 0
- Dizziness, patients n (%) [3]: 0
- Headache, patients n (%) [3]: 0
- nausea, patients n (%) [3]: 0
- vomiting, patients n (%) [3]: 0
- ALT elevated, patients n (%) (TRAE, grade 1-2, total (n=152)): 38(25%)
- AST elevated, patients n (%) (TRAE, grade 1-2, total (n=152)): 41(27%)
- CPK elevated, patients n (%) (TRAE, grade 1-2, total (n=152)): 25(16%)
- Hypertension, patients n (%) (TRAE, grade 1-2, total (n=152)): 18(12%)
- Hypertriglyceridemia, patients n (%) (TRAE, grade 1-2, total (n=152)): 28(18%)
- diarrhea, patients n (%) (TRAE, grade 1-2, total (n=152)): 21(14%)
- hypercholesterolemia, patients n (%) (TRAE, grade 1-2, total (n=152)): 39(26%)
- hyperlipidemia, patients n (%) (TRAE, grade 1-2, total (n=152)): 15(10%)
- nausea, patients n (%) (TRAE, grade 1-2, total (n=152)): 43(28%)
- rash, patients n (%) (TRAE, grade 1-2, total (n=152)): 15(10%)
- vomiting, patients n (%) (TRAE, grade 1-2, total (n=152)): 37(24%)
- γ-GGT elevated, patients n (%) (TRAE, grade 1-2, total (n=152)): 10(7%)
- CPK elevated, patients n (%) (TRAE, ≥grade 3, total (n=152)): 0
- diarrhea, patients n (%) (TRAE, ≥grade 3, total (n=152)): 1(1%)
- hypercholesterolemia, patients n (%) (TRAE, ≥grade 3, total (n=152)): 1(1%)
- hyperlipidemia, patients n (%) (TRAE, ≥grade 3, total (n=152)): 0
- nausea, patients n (%) (TRAE, ≥grade 3, total (n=152)): 0
- rash, patients n (%) (TRAE, ≥grade 3, total (n=152)): 1(1%)
- vomiting, patients n (%) (TRAE, ≥grade 3, total (n=152)): 0
- CPK elevated, patients n (%) [4]: 0
- hyperlipidemia, patients n (%) [4]: 0
- nausea, patients n (%) [4]: 0
- vomiting, patients n (%) [4]: 0
- maximum tolerated dose (MTD) (dose-escalation 30–300 mg): could not be identified; also recorded: not reached
- dose-limiting toxicities (DLTs) (dose-escalation, 300 mg, in 1 of 3 patients: grade 3 QT interval prolonged, grade 2 chronic heart failure): Two
- AE led to dose interruption, patients n (%) (total (n=152)): 30(20%)
- AE led to dose interruption, treatment-related, patients n (%) (total (n=152)): 30 (20%) and 27(18%)
- AE led to dose reduction, treatment-related, patients n (%) (total (n=152)): 4 (3%)
- AE led to treatment termination, patients n (%) (total (n=152)): 11(7%)
- Adverse events, total, patients n (%) (total (n=152)): 148 (97%)
- Death during treatment, not related with disease progression, patients n (%) (total (n=152)): 6(4%)
- Death during treatment, related with disease progression, patients n (%) (total (n=152)): 1(1%)
- Discontinuation due to adverse event, patients n (%) (total (n=152)): 11(7%)
- Discontinuation due to adverse event, treatment-related, patients n (%) (total (n=152)): 8(5%)
- Serious adverse event, patients n (%) (total (n=152)): 25 (16%)
- ≥grade 3 adverse event, patients n (%) (total (n=152)): 53 (35%)
